Tests used:
HeLa cells = assay: MTS assay of cell viability after peptide treatment; type: cell-based; settings: HeLa cells at 90% confluency, peptide in phenol red-free DMEM for 1 h, absorbance 450 nm
Protocol: HeLa cells were purchased from the Korean Cell Line Bank (Korea) and cultured in Dulbecco’s modified Eagle’s medium (DMEM) containing 10% fetal bovine serum and 1× penicillin-streptomycin (100 IU/ml and 100 μg/ml, Gibco-Thermo Fisher, USA) at 37°C in a humidified 5% CO2 atmosphere.
HeLa cells were cultured in 96-well plates to 90% confluency and treated with peptides mixed in phenol red-free DMEM for 1 h. After incubation, MTS solution (20 μl, Promega, USA) was added and the absorbance of each well was measured at 450 nm.
Fig. 1 Mitochondrial targeting domain (MTD) homologs induce necrotic cell death as in MTD. A. (Left panel) There are several mitochondrial targeting domain (MTD) homologs in human genes. They were searched by protein basic local alignment search tool (BLAST) on National Center for Biotechnology Information (NCBI) and sorted according to percent identity with MTD. Each amino acid was colored according to the ClustalX color scheme (hydrophobic, blue; positive charge, red; negative charge, magenta; polar, green; glycine, orange; proline, yellow; aromatic, cyan; cysteine, pink). (Right panel) The cytotoxicity of mitochondrial targeting domain (MTD) homologs is determined by its amino acid sequence. MTD homologs were grouped according to their cytotoxicity, then sorted according to percent identity with MTD. Each amino acid was colored according to the ClustalX color scheme (hydrophobic, blue; positive charge, red; negative charge, magenta; polar, green; glycine, orange; proline, yellow; aromatic, cyan; cysteine, pink). B. Cell viabilities were determined by MTS assay 1 h after treating HeLa cells with MTD homologs fused with octa-arginine (R8). HeLa cells treated with R8:M-LIPRIN, R8:MST3GAL3, R8:M-TRRAD, and R8:M-SDAD1(left panel). HeLa cells treated with eM-GAL3, R8:MGAL3, and R8:M-ST13 (right panel). C, HeLa cells treated with R8:M-SDAD1 (5 μM), R8:M-TRRAD (20 μM), and R8:M-ST3GAL3 (40 μM), then observed for 10 min using differential interference contrast microscopy. D, HeLa cells were treated with R8:M-SDAD1 (10 μM), R8:M-TRRAD (20 μM), and R8:M-ST3GAL3 (40 μM), with and without DIDS (200 μM); after 1 h, cell viability was determined by MTS assay. […]

[1] = cited from earlier work
Description: Within few minutes after the treatment with the MTD peptide, intracellular calcium concentration increases, and extracellular calcium penetrates through the mitochondrial permeability transition (mPT) pore. With the formation of blebs, the calcium concentration decreases and mitochondrial reactive oxidative species (ROS) begin to increase. MTDs also induce mitochondrial swelling, fragmentation, and endopla ... || Bnip1 MTD-like motif (B1MLM), derived from another BH3-only protein, Bnip1, also induces cell death in the same manner. Bnip1 interacts with […] Bcl-2 family proteins and the adenoviral antiapoptotic protein, E1B 19 kDa. The BH3 domain of Bnip1 is closely involved in apoptosis and mitochondrial fission carried out by Drp1 [14]. B1MLM has a similar arrangement of leucine residues as that of MTD. […] Similar to MTD, B1MLM induces a sharp rise in ca ... || MTD and B1MLM peptides induce necrotic cell death when associated with R8. R8 is a well-known cell penetrating motif. […] To evaluate the cytotoxicity of MTD homologs, we synthesized these peptides and fused R8 at the N-terminus.

[2] = previous study; cited from earlier work

Sequence	cytotoxicity / cell viability as the concentration increased (Fig. 1B) (HeLa cells)	further results
LLQYNHRVKKLNEISKLGISGDIDLTSASYTMI [eM-GAL3, M-GAL3 with a flanking region similar to that of eMTD, without R8]	hardly altered cell viability	
RRRRRRRREAKLLELTSKLRKA [R8:M-LIPRIN, MTD homolog found in LIPRIN, fused with R8 at the N-terminus]	hardly altered cell viability	
RRRRRRRRVKKLNEISKLGISG [R8:M-GAL3, MTD homolog found in GAL3, fused with R8 at the N-terminus]	hardly altered cell viability	
KLNFRQKLLNLISKLFCSGT [eMTD, extended MTD: MTD with its flanking region]		necrotic cell death ([1]; MTD with its flanking region): strongly induces necrotic cell death
RRRRRRRRNPKVMNLISKLSAK [R8:M-ST13, MTD homolog found in ST13, fused with R8 at the N-terminus]	hardly altered cell viability	
RRRRRRRRKLLNLISKLF [R8:MTD]		disruption of ER and mitochondria [2]: induced the disruption of ER and mitochondria
KLLNLISKLF [MTD, mitochondrial targeting domain of Noxa, as a peptide without R8]		cell killing activity of MTD peptide without R8 ([1]; previous study): did not show any cell killing activity

— paper PMC9705834, “Mitochondrial Targeting Domain Homologs Induce Necrotic Cell Death Via Mitochondrial and Endoplasmic Reticulum Disruption” (Journal of Microbiology and Biotechnology, 2021)
